The values that follow come from patent US4914127A, “3-Demethylmevalonic acid derivatives, a process for their preparation pharmaceutical products based on these compounds, their use and intermediates” (Hoechst Aktiengesellschaft, priority 1985, dated 1990).

As usually defined, the IC50 is the point on the concentration scale where inhibition reaches its midpoint.

The target in one test is T1, HMG-CoA reductase (Rattus norvegicus, UniProt P51639).
T1 construct: solubilized enzyme preparations from liver microsomes of rats; from tissue; host or cells: liver microsomes of cholestyramine-induced rats
T1 sequence (P51639 1-887): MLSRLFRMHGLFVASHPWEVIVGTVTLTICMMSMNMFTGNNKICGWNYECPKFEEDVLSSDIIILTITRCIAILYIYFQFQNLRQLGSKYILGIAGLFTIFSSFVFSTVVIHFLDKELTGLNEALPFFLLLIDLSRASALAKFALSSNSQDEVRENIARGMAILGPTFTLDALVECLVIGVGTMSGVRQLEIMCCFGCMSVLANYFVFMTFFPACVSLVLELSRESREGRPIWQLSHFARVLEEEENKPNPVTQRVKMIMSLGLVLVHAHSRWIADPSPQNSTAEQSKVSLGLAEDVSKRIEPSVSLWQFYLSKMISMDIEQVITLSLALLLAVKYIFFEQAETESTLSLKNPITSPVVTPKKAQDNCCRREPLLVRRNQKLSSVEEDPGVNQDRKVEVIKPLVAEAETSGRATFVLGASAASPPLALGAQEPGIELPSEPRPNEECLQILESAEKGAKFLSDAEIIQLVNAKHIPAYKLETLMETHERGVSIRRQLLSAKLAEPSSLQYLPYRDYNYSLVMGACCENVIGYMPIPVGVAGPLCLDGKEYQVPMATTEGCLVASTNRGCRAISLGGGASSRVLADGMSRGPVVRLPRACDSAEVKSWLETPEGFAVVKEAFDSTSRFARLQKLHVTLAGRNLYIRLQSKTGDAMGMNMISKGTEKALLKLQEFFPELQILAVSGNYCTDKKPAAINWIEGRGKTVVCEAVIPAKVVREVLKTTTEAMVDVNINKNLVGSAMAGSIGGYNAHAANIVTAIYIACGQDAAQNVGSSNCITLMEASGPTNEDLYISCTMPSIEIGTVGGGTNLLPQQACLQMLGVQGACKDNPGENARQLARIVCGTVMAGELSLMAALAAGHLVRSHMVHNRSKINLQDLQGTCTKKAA
Kind of test: HMG-CoA reductase activity in solubilized enzyme preparations from liver microsomes of rats. Format: biochemical. Conditions: 14C-HMG-CoA substrate, mean from 3 parallel samples, read-out: IC50 [M], inhibition of HMG-CoA reductase. On the procedure: 1. HMG-CoA reductase activity in enzyme preparations
The HMG-CoA reductase activity was measured on solubilized enzyme preparations from liver microsomes of rats which, after the day/night rhythm had been changed, were induced with cholestyramine (®Cuemid). The substrate used was (S,R) ^14 C-HMG-CoA, and the concentration of NADPH was maintained during the incubation by a regenerating system. ^14 C-Mevalonate was removed from the substrate and other products (for example ^14 C-HMG) by column elution, the elution profile for each individual sample being determined. Constant inclusion of ^3 H-mevalonate was dispensed with because the determination was of the relative inhibitory effect. In each series of tests, the control containing no enzyme, and the normal mixture containing enzyme (=100%) and those with added products, final concentration 10^-5 to 10^-9 M, were treated together. Each individual figure was formed as the mean from 3 parallel samples. The signficance of the differences in the means between samples containing no product and those containing product was assessed by the t test.
Using the method described above, the following figures for the inhibition of HMG-CoA reductase were determined for the compounds according to the invention, for example: […]
For orientation: Liver microsomes are a subcellular fraction often used to study metabolism.

Test [1] deals with T2, HMG-CoA reductase (in HEP-G2 cells) (Homo sapiens, UniProt P04035).
T2 construct: endogenous in cells; host or cells: HEP-G2 cells
T2 sequence (P04035 1-888): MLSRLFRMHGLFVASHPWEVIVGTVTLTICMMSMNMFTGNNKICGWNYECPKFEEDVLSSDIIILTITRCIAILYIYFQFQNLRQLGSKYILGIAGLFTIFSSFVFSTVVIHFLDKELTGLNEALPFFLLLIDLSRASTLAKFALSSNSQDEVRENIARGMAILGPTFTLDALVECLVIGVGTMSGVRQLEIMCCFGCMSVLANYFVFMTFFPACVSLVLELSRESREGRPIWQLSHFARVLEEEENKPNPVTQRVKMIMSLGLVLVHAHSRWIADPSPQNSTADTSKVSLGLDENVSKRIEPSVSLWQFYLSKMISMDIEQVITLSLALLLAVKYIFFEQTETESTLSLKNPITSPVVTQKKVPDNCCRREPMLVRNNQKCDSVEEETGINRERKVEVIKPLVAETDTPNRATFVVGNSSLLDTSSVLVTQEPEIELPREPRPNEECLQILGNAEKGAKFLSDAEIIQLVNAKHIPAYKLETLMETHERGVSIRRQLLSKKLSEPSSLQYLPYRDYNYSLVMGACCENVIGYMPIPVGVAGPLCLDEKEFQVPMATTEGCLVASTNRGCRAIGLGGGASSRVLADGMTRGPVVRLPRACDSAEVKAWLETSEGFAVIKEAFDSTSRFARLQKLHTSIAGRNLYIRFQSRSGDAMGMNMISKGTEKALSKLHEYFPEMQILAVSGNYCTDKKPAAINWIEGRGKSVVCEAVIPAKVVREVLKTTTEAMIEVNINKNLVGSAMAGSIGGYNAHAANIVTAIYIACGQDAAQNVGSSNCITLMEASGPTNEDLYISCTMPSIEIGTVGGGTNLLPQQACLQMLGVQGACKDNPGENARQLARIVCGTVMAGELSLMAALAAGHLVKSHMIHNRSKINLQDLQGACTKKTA
Kind of test: Suppression or inhibition of HMG-CoA reductase in cell cultures (HEP-G2 cells; method described for fibroblasts, L cells). Format: cell-based. On the procedure: 2. Suppression or inhibition of HMG-CoA reductase in cell cultures of fibroblasts.
Monolayers of fibroblasts (L cells) in lipoprotein-free nutrient medium were incubated with appropriate concentrations of test substances for a specified period (for example 3 hours) and then the HMG-CoA reductase activity of the cells was determined by modification of the method of Chang et al. (J. Biol. Chem. 256, 6174 (1981)). For this purpose, the cell extracts were incubated with D,L-[^3 H]-HMG-CoA, and the product [^3 H]-mevalonate formed from the cells by the action of the HMG-CoA reductase activity present was, after cyclization to [^3 H]-mevalonolactone, separated from the starting material by thin-layer chromatography and, by use of an internal standard of [^14 C]-mevalonate, the amount of [^3 H]-mevalonate formed in unit time was determined and related to the amount of cellular protein.

Test [2] concerns 3-hydroxy-3-methylglutaryl-coenzyme-A reductase (HMG-CoA reductase). The following applies: in words; cited from earlier work.
The conditions of test [3]: in human trials; cited from earlier work.
For test [4] the following is noted: in the rat; cited from earlier work.

Like-named read-outs stand apart in the source and are kept apart here.

Consider `O=C1C[C@H](O)C[C@@H](/C=C/c2ccccc2CC2CCCCC2)O1` [16 j], for which the IC50 on HMG-CoA reductase is 9e-08 M; in test [1], 380000 nM. Consider `O=C1C[C@H](O)C[C@@H](/C=C/c2c(Cl)cc(Cl)cc2CC2CCCCC2)O1` [16 z], for which the half-maximal inhibitory concentration (IC50) was 1.9e-08 M on HMG-CoA reductase and 1900 nM in test [1].

As for `O=C1C[C@H](O)C[C@@H](/C=C/c2c(Cl)cccc2Cc2ccc(Cl)cc2)O1` [16 ab], the IC50 came out at 2.3e-07 M at HMG-CoA reductase and 210000 nM in test [1].

Regarding `O=C1C[C@H](O)C[C@@H](/C=C/c2ccccc2CCc2ccc(F)cc2)O1` [16 g], the IC50 at HMG-CoA reductase turned out to be 9e-07 M; in test [1] it was 500000 nM. For the compound `CC[C@H](C)C(=O)O[C@H]1CCC=C2C=C[C@H](C)[C@H](CC[C@@H]3C[C@@H](O)CC(=O)O3)[C@H]21` [Compactin], the “inhibition of HMG-CoA reductase” value in test [2] was “inhibition”. With `Cc1cccc(CCC2CCCCC2)c1/C=C/[C@@H]1C[C@@H](O)CC(=O)O1` [16 u], the IC50 stood at 6.5e-07 M on HMG-CoA reductase and 200000 nM in test [1]. Turning to `O=C1C[C@H](O)C[C@@H](/C=C/c2c(Cl)cccc2CC2CCCCC2)O1` [16 ac], the values for the half-maximal inhibitory concentration (IC50) (at HMG-CoA reductase; in test [1]) were 7.1e-08 M and 3200 nM, respectively. Consider `O=C1C[C@H](O)C[C@@H](/C=C/c2ccccc2Cc2ccc(Cl)cc2)O1` [16 l], for which the concentration for half-maximal inhibition (IC50) at HMG-CoA reductase was 8e-07 M. Consider `CC(O)(CC(=O)O)CC(=O)O` [3-Hydroxy-3-methylglutaric acid], for which the cholesterol-lowering action result in test [3] and in test [4] was “significant cholesterol-lowering action” in each case. On to `Cc1cccc(Cc2ccc(Cl)cc2)c1/C=C/[C@@H]1C[C@@H](O)CC(=O)O1` [16 y], for which, on HMG-CoA reductase, the half-maximal inhibitory concentration (IC50) was 2.8e-07 M.
